{"source": "PubChem BioAssay AID1259407", "about": "(Chemical Carcinogenesis Research Information System (CCRIS), 2018)", "tested_on": "CCRIS mutagenicity, Ames/micronucleus/aberration tests", "experiment": "CCRIS mutagenicity studies", "key": {"[1]": {"details": "Test System: AMES SALMONELLA TYPHIMURIUM, Strain/Indicator: TA97, Metabolic Activation: NONE, Method: STANDARD PLATE"}, "[2]": {"details": "Test System: AMES SALMONELLA TYPHIMURIUM, Strain/Indicator: TA97, Metabolic Activation: RAT, LIVER, S-9, AROCLOR 1254, Method: STANDARD PLATE"}, "[3]": {"details": "Test System: AMES SALMONELLA TYPHIMURIUM, Strain/Indicator: TA98, Metabolic Activation: NONE, Method: STANDARD PLATE"}, "[4]": {"details": "Test System: AMES SALMONELLA TYPHIMURIUM, Strain/Indicator: TA98, Metabolic Activation: RAT, LIVER, S-9, AROCLOR 1254, Method: STANDARD PLATE"}, "[5]": {"details": "Test System: AMES SALMONELLA TYPHIMURIUM, Strain/Indicator: TA100, Metabolic Activation: NONE, Method: STANDARD PLATE"}, "[6]": {"details": "Test System: AMES SALMONELLA TYPHIMURIUM, Strain/Indicator: TA100, Metabolic Activation: RAT, LIVER, S-9, AROCLOR 1254, Method: STANDARD PLATE"}, "[7]": {"details": "Test System: AMES SALMONELLA TYPHIMURIUM, Strain/Indicator: TA98, Metabolic Activation: NONE, Method: PREINCUBATION"}, "[8]": {"details": "Test System: AMES SALMONELLA TYPHIMURIUM, Strain/Indicator: TA100, Metabolic Activation: NONE, Method: PREINCUBATION"}, "[9]": {"details": "Test System: AMES SALMONELLA TYPHIMURIUM, Strain/Indicator: TA1535, Metabolic Activation: NONE, Method: PREINCUBATION"}, "[10]": {"details": "Test System: AMES SALMONELLA TYPHIMURIUM, Strain/Indicator: TA1537, Metabolic Activation: NONE, Method: PREINCUBATION"}}, "note": "Active and inactive are the calls of the source. How the calls were made is not given here.", "data": [{"smiles": "CN(N=O)C(=O)N[C@@H](C=O)[C@@H](O)[C@H](O)[C@H](O)CO", "values": [{"measurement": "mutagenic call", "setting": "End Point: IN VITRO CHROMOSOMAL ABERRATIONS, Test System: CHE CELLS, Metabolic Activation: NONE, Method: FISH (METAPHASE)", "result": "active; positive (structural changes)"}, {"measurement": "mutagenic call", "setting": "[1]", "result": "active; positive"}, {"measurement": "mutagenic call", "setting": "[2]", "result": "inactive; negative"}, {"measurement": "mutagenic call", "setting": "[3]", "result": "inactive; negative"}, {"measurement": "mutagenic call", "setting": "[4]", "result": "inactive; negative"}, {"measurement": "mutagenic call", "setting": "[5]", "result": "active; positive"}, {"measurement": "mutagenic call", "setting": "[6]", "result": "inactive; negative"}, {"measurement": "mutagenic call", "setting": "Test System: AMES SALMONELLA TYPHIMURIUM, Strain/Indicator: TA1535, Metabolic Activation: NONE, Method: STANDARD PLATE", "result": "active; positive"}, {"measurement": "mutagenic call", "setting": "Test System: CHINESE HAMSTER OVARY, Strain/Indicator: CHO-9 (HPRT), Metabolic Activation: NONE", "result": "active; positive"}, {"measurement": "mutagenic call", "setting": "Test System: CHINESE HAMSTER OVARY, Strain/Indicator: CHO-9/OUABAIN, Metabolic Activation: NONE", "result": "active; positive"}, {"measurement": "mutagenic call", "setting": "Test System: CHINESE HAMSTER OVARY, Strain/Indicator: CHO-K1-BH4 (HGPRT), Metabolic Activation: NONE, Method: SUSPENSION/PLATE", "result": "active; positive"}, {"measurement": "mutagenic call", "setting": "Test System: CHINESE HAMSTER OVARY, Strain/Indicator: EM-C11 (HPRT), Metabolic Activation: NONE", "result": "active; positive"}, {"measurement": "mutagenic call", "setting": "Test System: CHINESE HAMSTER OVARY, Strain/Indicator: EM-C11/OUABAIN, Metabolic Activation: NONE", "result": "active; positive"}, {"measurement": "mutagenic call", "setting": "Test System: CHINESE HAMSTER V-79, Strain/Indicator: V-79/6-THIOGUANINE, Metabolic Activation: NONE, Method: STANDARD PLATE", "result": "active; positive"}, {"measurement": "mutagenic call", "setting": "Test System: CHINESE HAMSTER V-79, Strain/Indicator: V-79/8-AZAGUANINE, Metabolic Activation: NONE, Method: STANDARD PLATE", "result": "active; positive"}, {"measurement": "mutagenic call", "setting": "Test System: E. COLI, Strain/Indicator: WP2 (HCR), Metabolic Activation: NONE, Method: STANDARD PLATE", "result": "active; positive"}]}, {"smiles": "C=C1[C@H](O)[C@@]23CC[C@H]4[C@@](C)(CCC[C@@]4(C)C(=O)O)[C@@H]2CC[C@]1(O)C3", "values": [{"measurement": "mutagenic call", "setting": "Test System: AMES SALMONELLA TYPHIMURIUM, Strain/Indicator: TM677, Metabolic Activation: RAT, LIVER, S-9, AROCLOR 1254, Method: PREINCUBATION", "result": "inactive; negative"}]}, {"smiles": "Nc1cc(Cl)ccc1[N+](=O)[O-]", "values": [{"measurement": "mutagenic call", "setting": "End Point: IN VITRO CHROMOSOMAL ABERRATIONS, Test System: CHL CELLS, Metabolic Activation: RAT, LIVER, S-9, SODIUM PHENOBARBITAL AND 5,6-BENZOFLAVONE", "result": "active; positive (structural changes); authors report equivocal results for ploidy chang"}, {"measurement": "mutagenic call", "setting": "[7]", "result": "active; positive"}, {"measurement": "mutagenic call", "setting": "Test System: AMES SALMONELLA TYPHIMURIUM, Strain/Indicator: TA98, Metabolic Activation: RAT LIVER S-9, PHENOBARBITAL AND BETA-NAPHTHOFLAVONE, Method: PREINCUBATION", "result": "active; positive"}, {"measurement": "mutagenic call", "setting": "[8]", "result": "inactive; negative"}, {"measurement": "mutagenic call", "setting": "Test System: AMES SALMONELLA TYPHIMURIUM, Strain/Indicator: TA100, Metabolic Activation: RAT LIVER S-9, PHENOBARBITAL AND BETA-NAPHTHOFLAVONE, Method: PREINCUBATION", "result": "inactive; negative"}, {"measurement": "mutagenic call", "setting": "[9]", "result": "inactive; negative"}, {"measurement": "mutagenic call", "setting": "Test System: AMES SALMONELLA TYPHIMURIUM, Strain/Indicator: TA1535, Metabolic Activation: RAT LIVER S-9, PHENOBARBITAL AND BETA-NAPHTHOFLAVONE, Method: PREINCUBATION", "result": "inactive; negative"}, {"measurement": "mutagenic call", "setting": "[10]", "result": "inactive; negative"}, {"measurement": "mutagenic call", "setting": "Test System: AMES SALMONELLA TYPHIMURIUM, Strain/Indicator: TA1537, Metabolic Activation: RAT LIVER S-9, PHENOBARBITAL AND BETA-NAPHTHOFLAVONE, Method: PREINCUBATION", "result": "inactive; negative"}, {"measurement": "mutagenic call", "setting": "Test System: E.COLI, Strain/Indicator: WP2UVRA, Metabolic Activation: NONE, Method: PREINCUBATION", "result": "inactive; negative"}, {"measurement": "mutagenic call", "setting": "Test System: E.COLI, Strain/Indicator: WP2UVRA, Metabolic Activation: RAT LIVER S-9, PHENOBARBITAL AND BETA-NAPHTHOFLAVONE, Method: PREINCUBATION", "result": "inactive; negative"}]}, {"smiles": "ClC1=C(Cl)[C@]2(Cl)[C@H]3[C@H]([C@@H]4C=C[C@H]3C4)[C@@]1(Cl)C2(Cl)Cl", "values": [{"measurement": "mutagenic call", "setting": "Test System: AMES SALMONELLA TYPHIMURIUM, Strain/Indicator: TA97, Metabolic Activation: HAMSTER, LIVER, S-9, AROCLOR 1254 (10 OR 30%), Method: PREINCUBATION", "result": "inactive; negative"}, {"measurement": "mutagenic call", "setting": "Test System: AMES SALMONELLA TYPHIMURIUM, Strain/Indicator: TA97, Metabolic Activation: NONE, Method: PREINCUBATION", "result": "inactive; negative"}, {"measurement": "mutagenic call", "setting": "[1]", "result": "inactive; negative"}, {"measurement": "mutagenic call", "setting": "Test System: AMES SALMONELLA TYPHIMURIUM, Strain/Indicator: TA97, Metabolic Activation: RAT, LIVER, S-9, AROCLOR 1254 (10 OR 30%), Method: PREINCUBATION", "result": "inactive; negative"}, {"measurement": "mutagenic call", "setting": "[2]", "result": "inactive; negative"}, {"measurement": "mutagenic call", "setting": "Test System: AMES SALMONELLA TYPHIMURIUM, Strain/Indicator: TA98, Metabolic Activation: HAMSTER, LIVER, S-9, AROCLOR 1254 (10 OR 30%), Method: PREINCUBATION", "result": "inactive; negative"}, {"measurement": "mutagenic call", "setting": "[7]", "result": "inactive; negative"}, {"measurement": "mutagenic call", "setting": "[3]", "result": "inactive; negative"}, {"measurement": "mutagenic call", "setting": "Test System: AMES SALMONELLA TYPHIMURIUM, Strain/Indicator: TA98, Metabolic Activation: RAT, LIVER, S-9, AROCLOR 1254 (10 OR 30%), Method: PREINCUBATION", "result": "inactive; negative"}, {"measurement": "mutagenic call", "setting": "[4]", "result": "inactive; negative"}, {"measurement": "mutagenic call", "setting": "Test System: AMES SALMONELLA TYPHIMURIUM, Strain/Indicator: TA100, Metabolic Activation: HAMSTER, LIVER, S-9, AROCLOR 1254 (10 OR 30%), Method: PREINCUBATION", "result": "inactive; negative"}, {"measurement": "mutagenic call", "setting": "[8]", "result": "inactive; negative"}, {"measurement": "mutagenic call", "setting": "[5]", "result": "inactive; negative"}, {"measurement": "mutagenic call", "setting": "Test System: AMES SALMONELLA TYPHIMURIUM, Strain/Indicator: TA100, Metabolic Activation: RAT, LIVER, S-9, AROCLOR 1254 (10 OR 30%), Method: PREINCUBATION", "result": "inactive; negative"}, {"measurement": "mutagenic call", "setting": "[6]", "result": "inactive; negative"}, {"measurement": "mutagenic call", "setting": "Test System: AMES SALMONELLA TYPHIMURIUM, Strain/Indicator: TA102, Metabolic Activation: NONE, Method: STANDARD PLATE", "result": "inactive; negative"}, {"measurement": "mutagenic call", "setting": "Test System: AMES SALMONELLA TYPHIMURIUM, Strain/Indicator: TA102, Metabolic Activation: RAT, LIVER, S-9, AROCLOR 1254, Method: STANDARD PLATE", "result": "inactive; negative"}, {"measurement": "mutagenic call", "setting": "Test System: AMES SALMONELLA TYPHIMURIUM, Strain/Indicator: TA1535, Metabolic Activation: HAMSTER, LIVER, S-9, AROCLOR 1254 (10 OR 30%), Method: PREINCUBATION", "result": "inactive; negative"}, {"measurement": "mutagenic call", "setting": "[9]", "result": "inactive; negative"}, {"measurement": "mutagenic call", "setting": "Test System: AMES SALMONELLA TYPHIMURIUM, Strain/Indicator: TA1535, Metabolic Activation: RAT, LIVER, S-9, AROCLOR 1254 (10 OR 30%), Method: PREINCUBATION", "result": "inactive; negative"}, {"measurement": "mutagenic call", "setting": "Test System: AMES SALMONELLA TYPHIMURIUM, Strain/Indicator: TA1537, Metabolic Activation: HAMSTER, LIVER, S-9, AROCLOR 1254 (30%), Method: PREINCUBATION", "result": "inactive; negative"}, {"measurement": "mutagenic call", "setting": "[10]", "result": "inactive; negative"}, {"measurement": "mutagenic call", "setting": "Test System: AMES SALMONELLA TYPHIMURIUM, Strain/Indicator: TA1537, Metabolic Activation: RAT, LIVER, S-9, AROCLOR 1254 (30%), Method: PREINCUBATION", "result": "inactive; negative"}]}, {"smiles": "C=C(C)C(=O)OCCOCCOCCOCCOC(=O)C(=C)C", "values": [{"measurement": "mutagenic call", "setting": "Test System: MOUSE LYMPHOMA, Strain/Indicator: L5178Y (TK+/TK-), Metabolic Activation: NONE, Method: SUSPENSION/PLATE", "result": "active; positive"}]}, {"smiles": "CCCCOc1c(C(=O)NOC(C)=O)ccc2ccccc12", "values": [{"measurement": "mutagenic call", "setting": "[5]", "result": "active; positive"}, {"measurement": "mutagenic call", "setting": "Test System: AMES SALMONELLA TYPHIMURIUM, Strain/Indicator: TA100, Metabolic Activation: RAT, S-9, AROCLOR, Method: STANDARD PLATE", "result": "active; positive"}]}]}
